System: LPS-stimulated RAW 264.7 macrophage murine cells
Test: RAW 264.7 cell-cycle distribution, PI flow cytometry
Format: cell-based
Conditions: for effect on cell-cycle arrest induced by LPS: 72 h of treatment
Source text: Since the anti-inflammatory effect can be related to the ability to change the inflammatory processes induced by LPS in RAW 264.7 cells, including monocyte/macrophage cell differentiation and cell-cycle arrest,[22] we analyzed the cell-cycle distribution in these cells in response to LPS and compounds 16 and 21. The two compounds with the highest antiproliferative and important NO inhibitory effects were selected for this assay. For this purpose, flow cytometry by propidium iodide (PI) staining was used to measure DNA ploidy as well as the distribution of cells in every phase of the cell cycle (Figure S2).
A stock solution was frozen and stored at […]. Before the experiments, this solution was diluted in cell-culture medium to the adequate concentrations for each experiment. For the antiproliferative assay in all cell lines, we determined the concentrations of compounds required for 20, 50, and 80% of inhibition cell growth, IC20, IC50, and IC80, concentrations, respectively, to analyze the complete range of cytotoxicity and to determine the graduated or acute response to these compounds. For nitrite assay, subcytotoxic concentrations (3/4IC50, 1/2IC50, and 1/4IC50), were used to ensure that the NO inhibitory potential was not due to a possible cytotoxic effect. The concentrations of 3/4IC50, 1/2IC50, and 1/4IC50 were used for the cell-cycle analysis. All experiments were measured and compared with control (untreated cells after 24, 48, or 72 h of treatment.)
Cellular subpopulations, with different DNA contents, were visualized, using a fluorescence-activated cell sorter (FACS) at 488 nm in an Epics XL flow cytometer (Coulter Corporation, Hialeah, FL, USA). Changes in DNA levels are characteristic of cell-cycle arrest and cell differentiation.[36] […] Several controls were analyzed in parallel. […] Data were analyzed to determine the percentage of cells in each cell-cycle phase (G0/G1, S, and G2/M).

Structure (SMILES)	effect on cell-cycle arrest induced by LPS	proportion of cells in the S phase (LPS + compound, 72 h, 1/4IC50 to 3/4IC50, with respect to positive control)
COC(=O)[C@]1(C)CCC[C@]2(C)c3cc(O)c(C=O)c(C)c3CC[C@@H]12 [Compound 21, (1R,4aS,10aR)-Methyl 7-formyl-6-hydroxy-1,4a,8-trimethyl-1,2,3,4,4a,9,10,10a-octahydrophenanthrene-1-carboxylate]	could revert the cell-cycle arrest induced by LPS	–
COC(=O)[C@]1(C)CCC[C@@]2(C)[C@H]1CC=C1C(C)=C(C(C)C)C(=O)C[C@@H]12 [Compound 16, (1R,4aR,10aR)-Methyl 7-isopropyl-1,4a,8-trimethyl-6-oxo-1,2,3,4,4a,4b,5,6,10,10a-decahydrophenanthrene-1-carboxylate]	could revert the cell-cycle arrest induced by LPS	69%
